In US6300331A, “Naphthalimidobenzamide derivatives” (Taiho Pharmaceutical Co., Ltd., priority 1998, dated 2001):
Counter-ions that a name gives are not always drawn.

Test system: KB cells
Experiment: Cytotoxicity against KB cells (crystal violet dying method)
Format: cell-based
Settings: Homo sapiens; KB cells, 72 hours, 50% proliferation inhibition; read-out: Cytotoxicity [IC50 (μM)]
Protocol: Test 1 Cytotoxicity against KB cells
The residue was re-suspended in an MEM medium containing 10% fetal bovine serum. Then, an equivalent amount of a 0.2% trypan blue solution was added to a portion of the cell suspension, followed by mixing. The number of living cells which had not been dyed with the trypan blue was counted by a hemocytometer and the suspension was diluted and adjusted with the above-described culture medium to give a cell concentration of 1×10^4 cells/ml. Each well of a 96-well plate was inoculated with a 100-μl portion of the resulting suspension, in other words, was inoculated to give a concentration of 1×10^3 cells/well.
To the cells cultured in a CO2 incubator for 24 hours after the inoculation was added 100 μl/well of a medicament solution, followed by culturing for 72 hours. To a control was added 100 μl of an MEM medium.
The cytotoxicity of the medicament was determined from a change in the number of the cells by using the crystal violet dying method.
After washing the plate with water, 100 μl/well of a 0.05% crystal violet solution dissolved in 20% methanol was added to dye the cells therewith for about 15 minutes. The plate was washed to remove the unbound crystal violet, followed by the addition of 100 μl/well of 0.05M NaH2 PO4 /ethanol (1:1 v/v), whereby the crystal violet bound to the cellular protein was extracted.

Row | Compound | IC50 [µM]
1 | O=C(NCCNCCN1C(=O)c2cccc3cccc(c23)C1=O)c1cc(C(=O)NCCNCCN2C(=O)c3cccc4cccc(c34)C2=O)cc(N2C(=O)c3cccc4cccc(c34)C2=O)c1 [Example 1, 1,3-bis[N-[2-[[2-(1,8-naphthalimido)ethyl]amino]ethyl]carbamoyl]-5-(1,8-naphthalimido) benzene dimethanesulfonate] | 0.059
2 | O=C(NCCNCCN1C(=O)c2cccc3cc([N+](=O)[O-])cc(c23)C1=O)c1cc(C(=O)NCCNCCN2C(=O)c3cccc4cc([N+](=O)[O-])cc(c34)C2=O)cc(N2C(=O)c3cccc4cccc(c34)C2=O)c1 [Example 2, 1,3-bis[N-[2-[[2-(3-nitro-1,8-naphthalimido)ethyl]amino]ethyl]carbamoyl]-5(1,8-naphthalimido)benzene dimethanesulfonate] | 0.0061
3 | O=C(NCCNCCn1c2ccccc2c2ccncc21)c1cc(C(=O)NCCNCCn2c3ccccc3c3ccncc32)cc(N2C(=O)c3cccc4cc([N+](=O)[O-])cc(c34)C2=O)c1 [Example 3, 1,3-bis[N-[2-[[2-(pyrido[3,4-b]indol-9-yl)ethyl]amino]ethyl]carbamoyl]-1-(3-nitro-1,8-naphthalimido)benzene tetratrifluoroacetate] | 2.6
4 | O=C(NCCNCCN1C(=O)c2cccc3cccc(c23)C1=O)c1cc(C(=O)NCCNCCN2C(=O)c3cccc4cccc(c34)C2=O)cc(N2C(=O)c3cccc4cc([N+](=O)[O-])cc(c34)C2=O)c1 [Example 6, 1,3-bis[N-[2-[[2-(1,8-naphthalimido)ethyl]amino]ethyl]carbamoyl]-5-(3-nitro-1,8-naphthalimido)benzene and dihydrochloride thereof] | 0.064
5 | O=C(NCCNCCN1C(=O)c2cc3ccccc3cc2C1=O)c1cc(C(=O)NCCNCCN2C(=O)c3cc4ccccc4cc3C2=O)cc(N2C(=O)c3cccc4cc([N+](=O)[O-])cc(c34)C2=O)c1 [Example 7, 1,3-bis[N-[2-[[2-(2,3-naphthalimido)ethyl]amino]ethyl]carbamoyl]-5-(3-nitro-1,8-naphthalimido)benzene dihydrochloride] | 4.1
6 | O=C(NCCNCCN1C(=O)c2cccc3c(Cl)ccc(c23)C1=O)c1cc(C(=O)NCCNCCN2C(=O)c3cccc4c(Cl)ccc(c34)C2=O)cc(N2C(=O)c3cccc4cc([N+](=O)[O-])cc(c34)C2=O)c1 [Example 8, 1,3-bis[N-[2-[[2-(4-chloro-1,8-naphthalimido)ethyl]amino]ethyl]carbamoyl]-5-(3-nitro-1,8-naphthalimido)benzene dihydrochloride] | 0.05
7 | O=C(NCCNCCN1C(=O)c2cccc3c(Cl)ccc(c23)C1=O)c1cc(C(=O)NCCNCCN2C(=O)c3cccc4c(Cl)ccc(c34)C2=O)cc(N2C(=O)c3cccc4cccc(c34)C2=O)c1 [Example 9, 1,3-bis[N-[2-[[2-(4-chloro-1,8-naphthalimido)ethyl]amino]ethyl]carbamoyl]-5-(1,8-naphthalimido)benzene dihydrochloride] | 0.023
8 | O=C(NCCCNCCCN1C(=O)c2cccc3cc([N+](=O)[O-])cc(c23)C1=O)c1cc(C(=O)NCCCNCCCN2C(=O)c3cccc4cc([N+](=O)[O-])cc(c34)C2=O)cc(N2C(=O)c3cccc4cc([N+](=O)[O-])cc(c34)C2=O)c1 [Example 11, 1,3-bis[N-[3-[[3-(3-nitro-1,8-naphthalimido)propyl]amino]propyl]carbamoyl]-5-(3-nitro-1,8-naphthalimido)benzene dihydrochloride] | 0.14
9 | O=C(NCCNCCNC(=O)c1cnc2ccccc2c1)c1cc(C(=O)NCCNCCN2C(=O)c3cccc4cc([N+](=O)[O-])cc(c34)C2=O)cc(N2C(=O)c3cccc4cc([N+](=O)[O-])cc(c34)C2=O)c1 [Example 13, 1-(3-nitro-1,8-naphthalimido)-3-[N-[2-[[2-(3-nitro-1,8-naphthalimido)ethyl]amino]ethyl]carbamoyl]-5-[N-[2-[[2-(quinoline-3-carbonylamino)ethyl]amino]ethyl]carbamoyl]benzene trihydrochloride] | 1.6
10 | O=C(NCCNCCNC(=O)c1ccnc2ccccc12)c1cc(C(=O)NCCNCCN2C(=O)c3cccc4cc([N+](=O)[O-])cc(c34)C2=O)cc(N2C(=O)c3cccc4cc([N+](=O)[O-])cc(c34)C2=O)c1 [Example 14, 1-(3-nitro-1,8-naphthalimido)-3-[N-[2-[[2-(3-nitro-1,8-naphthalimido)ethyl]amino]ethyl]carbamoyl]-5-[N-[2-[[2-(quinoline-4-carbonylamino)ethyl]amino]ethyl]carbamoyl]benzene trihydrochloride] | 1.3
11 | O=C(NCCNCCNC(=O)c1cnc2ccccc2n1)c1cc(C(=O)NCCNCCN2C(=O)c3cccc4cc([N+](=O)[O-])cc(c34)C2=O)cc(N2C(=O)c3cccc4cc([N+](=O)[O-])cc(c34)C2=O)c1 [Example 15, 1-(3-nitro-1,8-naphthalimido)-3-[N-[2-[[2-(3-nitro-1,8-naphthalimido)ethyl]amino]ethyl]carbamoyl]-5-[N-[2-[[2-(quinoxaline-2-carbonylamino)ethyl]amino]ethyl]carbamoyl]benzene trihydrochloride] | 0.21
12 | Cn1c(C(=O)NCCNCCNC(=O)c2cc(C(=O)NCCNCCN3C(=O)c4cccc5cc([N+](=O)[O-])cc(c45)C3=O)cc(N3C(=O)c4cccc5cc([N+](=O)[O-])cc(c45)C3=O)c2)cc2ccccc21 [Example 16, 1-(3-nitro-1,8-naphthalimido)-3-[N-[2-[[2-(3-nitro-1,8-naphthalimido)ethyl]amino]ethyl]carbamoyl]-5-[N-[2-[[2-(1-methylindole-2-carbonylamino)ethyl]amino]ethyl]carbamoyl]benzene dihydrochloride] | 6.6
13 | O=C(NCCNCCN1C(=O)c2cc3ccccc3cc2C1=O)c1cc(C(=O)NCCNCCN2C(=O)c3cccc4cc([N+](=O)[O-])cc(c34)C2=O)cc(N2C(=O)c3cccc4cc([N+](=O)[O-])cc(c34)C2=O)c1 [Example 17, 1-[N-[2-[[2-(2,3-naphthalimido)ethyl]amino]ethyl]carbamoyl]-3-(3-nitro-1,8-naphthalimido)-5-[N-[2-[[2-(3-nitro-1,8-naphthalimido)ethyl]amino]ethyl]carbamoyl]benzene dihydrochloride] | 0.28
14 | CN(C)CCCNC(=O)c1cc(NC(=O)CCNC(=O)c2cc(C(=O)NCCNCCN3C(=O)c4cccc5cc([N+](=O)[O-])cc(c45)C3=O)cc(N3C(=O)c4cccc5cc([N+](=O)[O-])cc(c45)C3=O)c2)cn1C [Example 33, 1-[N-[2-[N-[2-[N-(3-dimethylaminopropyl)carbamoyl]-1-methylpyrrol-4-yl]carbamoyl]ethyl]carbamoyl]-3-(3-nitro-1,8-naphthalimido)-5-[N-[2-[[2-(3-nitro-1,8-naphthalimido)ethyl]amino]ethyl]carbamoyl]benzene dihydrochloride] | 7.1
15 | CN(C)CCCNC(=O)c1cc(NC(=O)CCCNC(=O)c2cc(C(=O)NCCNCCN3C(=O)c4cccc5cc([N+](=O)[O-])cc(c45)C3=O)cc(N3C(=O)c4cccc5cc([N+](=O)[O-])cc(c45)C3=O)c2)cn1C [Example 34, 1-[N-[3-[N-[2-[N-(3-dimethylaminopropyl)carbamoyl]-1-methylpyrrol-4-yl]carbamoyl]propyl]carbamoyl]-3-(3-nitro-1,8-naphthalimido)-5-[N-[2-[[2-(3-nitro-1,8-naphthalimido)ethyl]amino]ethyl]carbamoyl]benzene dihydrochloride] | 4.7
16 | Cn1cc(NC(=O)c2cc(NC=O)cn2C)cc1C(=O)NCCNCCNC(=O)c1cc(C(=O)NCCNCCN2C(=O)c3cccc4cc([N+](=O)[O-])cc(c34)C2=O)cc(N2C(=O)c3cccc4cc([N+](=O)[O-])cc(c34)C2=O)c1 [Example 38, 1-[N-[2-[[2-[4-(4-formamido-1-methylpyrrole-2-carboxyamido)-1-methylpyrrole-2-carboxamido]ethyl]amino]ethyl]carbamoyl]-3-(3-nitro-1,8-naphthalimido)-5-[N-[2-[[2-(3-nitro-1,8-naphthalimido)ethyl]amino]ethyl]carbamoyl]benzene dihydrochloride] | 6.9
17 | O=C(NCCNCCN1C(=O)c2cccc3cc([N+](=O)[O-])cc(c23)C1=O)c1cccc(N2C(=O)c3cccc4cc([N+](=O)[O-])cc(c34)C2=O)c1 [Example 39, 1-(3-nitro-1,8-naphthalimido)-3-[N-[2-[[2-(3-nitro-1,8-naphthalimido)ethyl]amino]ethyl]carbamoyl]benzene hydrochloride] | 0.0053
18 | O=C(NCCNCCCN1C(=O)c2cccc3cc([N+](=O)[O-])cc(c23)C1=O)c1cccc(N2C(=O)c3cccc4cc([N+](=O)[O-])cc(c34)C2=O)c1 [Example 40 (A), 1-(3-nitro-1,8-naphthalimido)-3-[N-[2-[[3-(3-nitro-1,8-naphthalimido)propyl]amino]ethyl]carbamoyl]benzene hydrochloride] | 0.003
19 | O=C(NCCCNCCN1C(=O)c2cccc3cc([N+](=O)[O-])cc(c23)C1=O)c1cccc(N2C(=O)c3cccc4cc([N+](=O)[O-])cc(c34)C2=O)c1 [Example 40 (B), 1-(3-nitro-1,8-naphthalimido)-3-[N-[3-[[2-(3-nitro-1,8-naphthalimido)ethyl]amino]propyl]carbamoyl]benzene hydrochloride] | 0.00023
